How the values were obtained:
Erythroid cells = experiment: EPO-dependent cell viability assay; type: cell-based; conditions: for maximum efficacy relative to the efficacy of EPO (cell viability): erythroid cells, FIG. 3; for erythropoietic efficacy compared with EPO at typical serum concentrations: typical EPO in blood approx. 0.01 U/ml
Protocol: Erythroid cells were treated with various concentrations of recombinant human EPO, Compound 101, or Compound 102, and the viability of treated cells was measured. The maximum efficacies of Compounds 101 and 102 was approximately 40% of the efficacy of EPO, corresponding to EPO EC40 of approximately 0.02 U/ml (FIG. 3). The typical EPO concentration in blood is approximately 0.01 U/ml, with a range from about 0.006 U/ml to about 0.032 U/ml.

[1] = test system: CD34+ human bone marrow cells (BM-HCs); experiment: Relative differentiation of human bone marrow cells (CD235a expression); type: cell-based; conditions: 10 nm Compound 101; FIG. 4
Protocol: CD34+ human bone marrow cells (BM-HCs) were treated with various concentrations of recombinant human EPO, Compound 101, Compound 102, or control. The number of cells expressing the erythrocyte-specific marker, CD235a (glycophorin A), was measured. […] The level of expression of CD235a in cells treated with 10 nm Compound 101 was approximately 37% of the level of expression of CD235a in cells treated with 2.0 U/ml EPO.

[2] = test system: CD34+ human bone marrow cells; experiment: BFU-E colony formation in human CD34+ bone marrow cells; type: cell-based; conditions: Compound 101 10 nM
Protocol: CD34+ human bone marrow cells were incubated with recombinant human EPO, Compound 101, or control. Compound 101 stimulated the formation of BFU-E colonies with partial efficacy (31%) when incubated with BM-HCs.

PI3K [3] = experiment: Phosphorylation of PI3K in UT7 cells; type: cell-based, human; conditions: 60 minutes, FIG. 5B
Protocol: (§1) UT7 cells were treated with 10 nM Compound 102, 100 nM Compound 102, or control (vehicle). Phosphorylation of the EPO receptor was measured after 15 minutes or 45 minutes of treatment with Compound 101 or control (vehicle) (FIG. 5A). Phosphorylation of PI3K was measured after 60 minutes of treatment with EPO, Compound 101, or control (vehicle) (FIG. 5B). Phosphorylation of GATA1 was measured after 60 minutes treatment with Compound 102, EPO or control (vehicle) (FIG. 5C).

GATA1 [4] = experiment: Electrophoretic mobility shift assay for GATA1 in UT7 cells; type: cell-based, human; conditions: 30 minute treatment
Protocol: Binding of GATA1 to DNA was measured in an electrophoretic mobility shift assay for GATA1 in UT7 cells after 30 minute treatments with 1 U/ml EPO, 30 nM Compound 102, or 100 nM Compound 101.

UT7 cells = experiment: Relative cell viability of UT7 cells transfected with EPO receptor- and GATA1-specific siRNAs; type: cell-based, human; conditions: 30 nM Compound 101, FIG. 7
Protocol: UT7 cells transfected with EPO receptor- and GATA1-specific siRNAs were treated with 1 U/ml EPO, 30 nM Compound 101, or control (vehicle). The relative cell viability of the cells was measured (FIG. 7).

EPO receptor = molecular target: T1, EPO receptor (Homo sapiens, UniProt P19235); experiment: Phosphorylation of the EPO receptor in UT7 cells; type: cell-based; conditions: 10 nM or 100 nM, 15 or 45 minutes, FIG. 5A
T1 construct: endogenous in cells; host or cells: UT7 cells
T1 sequence (P19235 25-508): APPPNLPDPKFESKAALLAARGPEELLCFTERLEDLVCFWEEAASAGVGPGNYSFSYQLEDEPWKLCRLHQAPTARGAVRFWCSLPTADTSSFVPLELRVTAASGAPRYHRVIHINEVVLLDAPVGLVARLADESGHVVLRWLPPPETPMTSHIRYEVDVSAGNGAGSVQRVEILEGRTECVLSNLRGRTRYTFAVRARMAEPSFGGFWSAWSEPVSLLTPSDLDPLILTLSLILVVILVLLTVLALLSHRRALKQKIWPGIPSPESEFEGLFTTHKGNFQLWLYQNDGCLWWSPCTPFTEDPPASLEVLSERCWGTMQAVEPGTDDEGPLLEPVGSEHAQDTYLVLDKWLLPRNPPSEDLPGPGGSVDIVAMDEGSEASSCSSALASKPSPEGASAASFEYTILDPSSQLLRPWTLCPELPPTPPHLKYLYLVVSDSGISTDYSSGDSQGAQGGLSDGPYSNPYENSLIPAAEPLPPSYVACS
T1 sequence (O60674 whole entry partner): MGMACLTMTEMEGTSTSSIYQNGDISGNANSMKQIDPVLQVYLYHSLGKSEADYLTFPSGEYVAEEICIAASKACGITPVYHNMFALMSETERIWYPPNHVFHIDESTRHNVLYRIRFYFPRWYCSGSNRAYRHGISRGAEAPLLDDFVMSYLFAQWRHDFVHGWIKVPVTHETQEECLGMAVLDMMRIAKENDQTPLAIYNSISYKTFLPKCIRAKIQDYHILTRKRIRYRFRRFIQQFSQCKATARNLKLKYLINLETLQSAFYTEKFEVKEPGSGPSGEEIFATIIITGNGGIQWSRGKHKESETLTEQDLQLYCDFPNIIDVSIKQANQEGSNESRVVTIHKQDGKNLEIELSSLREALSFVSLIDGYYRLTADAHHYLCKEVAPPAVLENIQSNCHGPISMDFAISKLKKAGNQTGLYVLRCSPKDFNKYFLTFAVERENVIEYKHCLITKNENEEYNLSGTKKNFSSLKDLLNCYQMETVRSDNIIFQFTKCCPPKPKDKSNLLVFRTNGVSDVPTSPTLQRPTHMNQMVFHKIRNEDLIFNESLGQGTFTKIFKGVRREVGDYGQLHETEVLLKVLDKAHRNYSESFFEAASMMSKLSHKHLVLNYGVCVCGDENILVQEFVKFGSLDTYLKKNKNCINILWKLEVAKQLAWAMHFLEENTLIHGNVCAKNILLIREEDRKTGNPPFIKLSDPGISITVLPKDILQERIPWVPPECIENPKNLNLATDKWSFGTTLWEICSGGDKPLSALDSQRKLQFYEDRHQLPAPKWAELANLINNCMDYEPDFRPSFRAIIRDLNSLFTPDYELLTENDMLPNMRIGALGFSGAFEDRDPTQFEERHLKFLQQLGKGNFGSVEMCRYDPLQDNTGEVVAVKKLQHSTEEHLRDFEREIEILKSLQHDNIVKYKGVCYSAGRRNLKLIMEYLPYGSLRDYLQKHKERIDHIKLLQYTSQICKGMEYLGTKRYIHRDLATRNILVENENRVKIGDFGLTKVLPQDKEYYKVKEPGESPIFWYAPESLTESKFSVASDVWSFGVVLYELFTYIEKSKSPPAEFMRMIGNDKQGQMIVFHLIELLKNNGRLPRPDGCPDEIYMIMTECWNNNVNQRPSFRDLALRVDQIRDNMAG
Protocol: as §1

GATA1 [5] = experiment: Phosphorylation of GATA1 in UT7 cells; type: cell-based, human; conditions: 60 minutes, FIG. 5C
Protocol: as §1

[6] = test system: CD34+ human bone marrow hematopoietic cells (BM-HCs); experiment: Percentage of CD235a (glycophorin A) positive cells in CD34+ BM-HCs; type: cell-based
[7] = test system: EPO responsive genes (hemoglobin α, EPO receptor, BCL2L1); experiment: Expression of EPO responsive genes in CD34 positive BM-HCs; type: cell-based, human
BM-HCs [8] = experiment: BFU-E colony formation in BM-HCs, 14 days; type: cell-based, human; conditions: incubated with BM-HCs for 14 days
Protocol: (§2) In addition, Compound 103 stimulated the formation of BFU-E colonies with partial efficacy (30%) when incubated with BM-HCs for 14 days. The effect of Compound 103 on BM-HCs was specific for the erythroid lineage.

BM-HCs [9] = experiment: Lineage specificity in BM-HCs (CD41, CD15 markers); type: cell-based, human
Protocol: as §2

UT7EPO cells = experiment: Apoptosis induced by EPO withdrawal / cell survival in UT7EPO cells; type: cell-based, human
Protocol: (§3) Using human cell lines, the action of Compound 103 was determined to be dependent on the EPO receptor and involves the selective activation of the PI3K/AKT-GATA1 signaling pathway.

BCL2L1 [10] = experiment: BCL2L1 expression in UT7EPO cells; type: cell-based, human
Protocol: as §3

EPOR = molecular target: T2, EPOR (Homo sapiens, UniProt P19235); experiment: Phosphorylation of EPOR in UT7EPO cells; type: cell-based
T2 construct: In the human EPO-dependent cell line UT7EPO; endogenous in cells; host or cells: UT7EPO cells
T2 sequence (P19235 25-508): as the sequence (P19235 25-508) above
T2 sequence (O60674 whole entry partner): as the sequence (O60674 whole entry partner) above
Protocol: as §3

PI3K [11] = experiment: Phosphorylation of PI3K in UT7EPO cells; type: cell-based, human
Protocol: as §3

GATA1 [12] = experiment: Phosphorylation of GATA1 in UT7EPO cells; type: cell-based, human
Protocol: as §3

STAT5 [13] = experiment: Phosphorylation of STAT5 in UT7EPO cells; type: cell-based, human
Protocol: as §3

ERK/MAPK = experiment: Phosphorylation of ERK/MAPK in UT7EPO cells; type: cell-based, human
Protocol: as §3

GATA1 [14] = experiment: Binding of GATA1 to DNA in UT7EPO cells; type: cell-based, human
Protocol: as §3

STAT5 [15] = experiment: STAT5 DNA binding in UT7EPO cells; type: cell-based, human
Protocol: as §3

Mo7e cells = experiment: Apoptosis in Mo7e cells that lack EPO receptor; type: cell-based; conditions: GM-CSF- and TPO-responsive human leukemia Mo7e cells that lack EPO receptor
BCL2L1 [16] = experiment: BCL2L1 expression in Mo7e cells that lack EPO receptor; type: cell-based; conditions: GM-CSF- and TPO-responsive human leukemia Mo7e cells that lack EPO receptor

CN(C)c1ccc(C(=O)N/N=C/c2ccc(Oc3ccc(/C=N/NC(=O)c4ccc(N(C)C)cc4)cc3)cc2)cc1 [Compound 101, (N′,N′″E,N′,N′″E)-N′,N′″-((Oxybis(4,1-phenylene))bis(methanylylidene))bis(4-(dimethylamino)benzohydrazide)]
maximum efficacy relative to the efficacy of EPO (cell viability) (Erythroid cells): approximately 40%
erythropoietic efficacy compared with EPO at typical serum concentrations (Erythroid cells): greater than would be predicted for EPO at typical serum concentrations
level of expression of CD235a compared with cells treated with 0.01 U/ml EPO [1]: above the level of expression observed in cells treated with 0.01 U/ml EPO
level of expression of CD235a relative to cells treated with 2.0 U/ml EPO [1]: approximately 37%
% BFU-E relative to 3 U/ml EPO [2]: 31%
BFU-Es/Dish [2]: 11
phosphorylation of PI3K (PI3K [3]): stimulated phosphorylation
binding of GATA1 to DNA (EMSA) (GATA1 [4]; 100 nM Compound 101): induce binding of GATA1 to DNA
effect of EPO receptor- and GATA1-specific siRNAs on compound activity (relative cell viability) (UT7 cells): blocks activity

COc1cccc(C(=O)N/N=C/c2ccc(Oc3ccc(/C=N/NC(=O)c4cccc(OC)c4)cc3)cc2)c1 [Compound 102, (N′,N′″E,N′,N′″E)-N′,N′″-((oxybis(4,1-phenylene))bis(methanylylidene))bis(3-methoxybenzohydrazide)]
maximum efficacy relative to the efficacy of EPO (cell viability) (Erythroid cells): approximately 40%
erythropoietic efficacy compared with EPO at typical serum concentrations (Erythroid cells): greater than would be predicted for EPO at typical serum concentrations
phosphorylation of the EPO receptor (EPO receptor): stimulated phosphorylation
phosphorylation of GATA1 (GATA1 [5]): stimulated phosphorylation
binding of GATA1 to DNA (EMSA) (GATA1 [4]; 30 nM Compound 102): induce binding of GATA1 to DNA

CN(C)c1ccc(C(=O)N/N=C/c2cccc(/C=N/NC(=O)c3ccc(N(C)C)cc3)c2)cc1 [Compound 103, (N′,N′″E,N′,N′″E)-N′,N′″-(1,3-phenylenebis(methanylylidene))bis(4-(dimethylamino)benzohydrazide)]
erythropoietic effect in combination with EPO ([6]; BM-HCs): additive to the effect of EPO
EC50 ([6]; Homo sapiens, CD34+ BM-HCs, read-out: EC50, increase of percentage of cells positive for CD235a): 2 nM
Emax ([6]; Homo sapiens, CD34+ BM-HCs, read-out: efficacy relative to the maximal effect of EPO (3 U/ml), CD235a positive cells): 42%
efficacy compared with the normal serum EPO concentration, CD235a positive cells ([6]; normal serum EPO (−0.01 U/ml)): greater than the efficacy of the normal serum EPO concentration
expression of EPO responsive genes including hemoglobin α, EPO receptor and BCL2L1 [7]: stimulated the expression
formation of BFU-E colonies, partial efficacy (BM-HCs [8]): 30%
percentage of BM-HCs positive for the granulocyte marker CD15 (BM-HCs [9]): did not increase
percentage of BM-HCs positive for the megakaryocyte marker CD41 (BM-HCs [9]): did not increase
EC50 (UT7EPO cells; Homo sapiens, UT-7/Epo, UT7EPO cells, read-out: EC50, block of apoptosis induced by EPO withdrawal): 10 nM
activity after transfection with EPO receptor- and GATA1-specific siRNAs (UT7EPO cells; UT7EPO cells): blocked the activity
effect on cell survival in presence of the PI3K inhibitor LY294002 (UT7EPO cells; UT7EPO cells incubated with LY294002): blocked the effect
stimulation of the expression of BCL2L1, efficacy (BCL2L1 [10]): efficacy comparable to EPO
phosphorylation of EPOR (EPOR): stimulated the phosphorylation
phosphorylation of PI3K (PI3K [11]): stimulated the phosphorylation
phosphorylation of GATA1 (GATA1 [12]): stimulated the phosphorylation
phosphorylation of STAT5 (STAT5 [13]): did not stimulate phosphorylation
phosphorylation of ERK/MAPK (ERK/MAPK): did not stimulate phosphorylation
binding of GATA1 to DNA (GATA1 [14]): induced the binding of GATA1 to DNA
induction of STAT5 DNA binding (STAT5 [15]): did not
block of apoptosis (Mo7e cells): did not block apoptosis
stimulation of BCL2L1 expression (BCL2L1 [16]): did not

— US20140243324A1, “USE OF HEMATOPOIETIC GROWTH FACTOR MIMETICS” (LIGAND PHARMACEUTICALS INCORPORATED, priority 2010, published 2014)
